{"source": "paper PMC9858543", "about": "“Design, synthesis and evaluation of 2, 6, 8-substituted Imidazopyridine derivatives as potent PI3Kα inhibitors” (Journal of Enzyme Inhibition and Medicinal Chemistry, 2023)", "key": {"T47D cells [1]": {"test_system": "T47D cells", "experiment": "Cell cycle analysis, PI flow cytometry", "assay_type": "cell-based, human", "details": "24 h", "protocol": "(§1) Considering compound 35 was most sensitive in T47D cells, we decided to get some mechanistic insight into the mode of action in T47D cell line. As such, the annexin V/7-AAD staining and cell cycle phase distribution have been carried out. […] Furthermore, T47D cells were also treated with different concentrations of 35, and the percentage of apoptotic cells was measured.\n(§2) For cell cycle analysis, T47D cell (1 × 10^6) were seeded in 6-well plates overnight and treated with different concentrations of compound 35 and DMSO control on the next day. After 24 h, the cells were collected by EDTA-free trypsinization, centrifuged at 1500 rpm for 5 min, and fixed in 75% ethanol at −20 °C for 1 h. The cells were then centrifuged at 2000 rpm for 5 min, resuspended in 500 µL PI/Rnase Staining Buffer, incubated for 30 min at room temperature, and analysed using flow cytometry. The data were analysed using Modfit software. For cell apoptosis analysis, T47D cell were seeded in 6 well-plates and treated with DMSO or compound 35 for 24 h. The treated cells were collected and washed with cold PBS for three times, resuspended in 185 µL binding buffer containing 5 μL Annexin V-FITC Apoptosis Detection Kit and 10 μL 7-AAD Viability Staining Solution for 15 min at room temperature in the dark. Apoptotic cells were analysed by flow cytometer."}, "T47D cells [2]": {"test_system": "T47D cells", "experiment": "Apoptosis analysis, annexin V/7-AAD flow cytometry", "assay_type": "cell-based, human", "details": "50 μM, 24 h", "protocol": "as §1, §2"}, "[3]": {"experiment": "Liver microsomal stability assay, HLM", "assay_type": "in vitro ADME, human", "protocol": "(§3) The metabolic stability of compound 35 was determined in human or SD rat liver microsomes, with and without the NADPH regenerating system. Briefly, compound 35 was incubated with microsomes (human microsome, CORNING, lot No. 38296; rat microsome, Xenotech, Lot No. 2110178) (0.5 mg protein/mL) at 1 μM at 37 °C in potassium phosphate buffer (100 mM at pH 7.4 with 10 mM MgCl2). The reactions were initiated by adding prewarmed cofactors (1 mmol NADPH). After incubation for different times (0, 5, 10, 20, 30, and 60 min) at 37 °C, cold acetonitrile containing 200 ng/mL tolbutamide and 200 ng/mL labetalol as internal standards was added to precipitate the protein. Then, the samples were centrifuged, and the supernatants were transferred into HPLC water, mixed by plate shaker for 10 min prior to LC − MS/MS analysis."}, "[4]": {"experiment": "Liver microsomal stability assay, RLM", "assay_type": "in vitro ADME, rat", "protocol": "as §3"}, "T47D": {"test_system": "T47D", "experiment": "Cell proliferation assay (CellTiter-Glo), T47D", "assay_type": "cell-based", "details": "Homo sapiens, 72 h exposure, mean ± SD of two experiments", "protocol": "(§4) Given the desirable enzyme activity profile, these compounds were further assayed for their antiproliferative activities against five independent human tumour cell line collections harbouring PIK3CA mutation, including human ovarian cancer cell line SKOV-3, human breast cancer T47D and MCF-7, human lung cancer H1975 and H460. […] In general, the cellular activity of tested derivatives corrected with their effects on kinase activity.\n(§5) All target compounds were evaluated for antiproliferative potency against SKOV-3, T47D,NCI-H1975, NCI-H460,and MCF-7 tumour cell lines using a CellTiter-Glo® Luminescent Cell Viability Assay. The human tumour cell lines used were obtained from the ATCC or Shanghai ZhongQiaoXinZhou Biotech. All the mediums and FBS were Gibco. T47D, H1975 and NCI-H460 tumour cells were cultured in RPMI1640 medium supplemented with 10% FBS. SKOV-3 was cultured in McCoy’s 5 A medium supplemented with 10%FBS. The day before treatment with compounds, cells were seeded at a density of 2000 or 5000 in each well of a 96-well plate. The tumour cells were then treated with 3-fold serial diluted compound or DMSO control in the incubator at 37 °C and 5% CO2 for 3 days, prior to the addition of CellTiter-Glo reagents (Promega) and reading of luminescence using a PerkinElmer Envision plate reader. Data were analysed using GraphPad Prism 7.0."}, "MCF-7": {"test_system": "MCF-7", "experiment": "Cell proliferation assay (CellTiter-Glo), MCF-7", "assay_type": "cell-based", "details": "Homo sapiens, MCF7; 72 h exposure; mean ± SD of two experiments", "protocol": "as §4, §5"}, "SKOV-3": {"test_system": "SKOV-3", "experiment": "Cell proliferation assay (CellTiter-Glo), SKOV-3", "assay_type": "cell-based", "details": "Homo sapiens, SK-OV-3; 72 h exposure; mean ± SD of two experiments", "protocol": "as §4, §5"}}}
{"smiles": "COc1ncc(-c2cc(C)cn3cc(C(=O)N4CCCC4)nc23)cc1NS(=O)(=O)c1ccc(F)cc1", "note": "[Compound 35, 4-Fluoro-N-(2-methoxy-5–(6-methyl-2-(pyrrolidine-1-carbonyl)Imidazo[1,2-a]pyridin-8-yl)pyridin-3-yl)benzenesulfonamide]", "values": [{"measurement": "cell cycle effect", "setting": "T47D cells [1]", "value": "S cell cycle arrest"}, {"measurement": "Q2 cells (late apoptosis), annexin V/7-AAD", "setting": "T47D cells [2]", "value": 21.8, "unit": "%"}, {"measurement": "Q3 cells (early apoptosis), annexin V/7-AAD", "setting": "T47D cells [2]", "value": 1.51, "unit": "%"}, {"measurement": "Remaining (T = 60min)", "setting": "[3]; 1 μM, 60 min", "value": 42.7, "unit": "%"}, {"measurement": "microsomal CLint at 1 μM", "setting": "[3]; human, human liver microsomes, pH 7.4, 0.5 mg protein/mL, read-out: Metabolic stability CL int", "value": 30.7, "unit": "µL/min/mg"}, {"measurement": "half-life at 1 μM", "setting": "[3]; human, human liver microsomes, pH 7.4, 0.5 mg protein/mL, read-out: Metabolic stability T1/2", "value": 45.1, "unit": "min"}, {"measurement": "Remaining (T = 60min)", "setting": "[4]; 1 μM, 60 min", "value": 31.5, "unit": "%"}, {"measurement": "microsomal CLint at 1 μM", "setting": "[4]; SD, rat, rat liver microsomes, pH 7.4, 0.5 mg protein/mL, read-out: Metabolic stability CL int", "value": 43.4, "unit": "µL/min/mg"}, {"measurement": "half-life at 1 μM", "setting": "[4]; SD, rat, rat liver microsomes, pH 7.4, 0.5 mg protein/mL, read-out: Metabolic stability T1/2", "value": 31.9, "unit": "min"}, {"measurement": "IC50", "setting": "T47D", "value": "7.9 ± 0.8", "unit": "µM"}, {"measurement": "IC50", "setting": "MCF-7", "value": "9.4 ± 0.6", "unit": "µM"}, {"measurement": "IC50", "setting": "SKOV-3", "value": "26.6 ± 1.3", "unit": "µM"}]}
